Patent publication US9707267B2, “Beta-turn peptidomimetic cyclic compounds for treating dry eye” (Mimetogen Pharmaceuticals, Inc., priority 2008, dated 2017)

Tests used:
[1] = tested on: Scopolamine Induced Rat Dry Eye Model; test: Scopolamine induced rat dry eye model, tear fluorescein clearance (Example 5); type: in vivo; conditions: ± SD
Experimental: (§1) Dry eye was induced using scopolamine hydrobromide (Sigma-Aldrich, St. Louis, Mo.), which was continuously and systemically delivered to the animals via an osmotic pump (2ML4 Alzet®; CedarLane, Burlington, Ontario) filled with scopolamine and implanted subcutaneously in the mid dorsal area between the scapulae. Scopolamine was delivered for a twenty-eight day period at 12.5 mg/day, which translated to 30.0±1.5 mg/kg via osmotic pump.
(§2) Treatments for G2-G6 continued daily for seventeen days (up to an including day twenty-one). Thereafter, treatments were terminated but the study continued for another week. During treatment, each animal was anesthetized in an isoflurane chamber. Once asleep, each animal received a 5 μL topical instillation of test article into the lower conjunctival sac of both eyes using a calibrated micropipette. If a clinical endpoint was also being tested, the test article was topically instilled at the end of the testing.
[…] Tear fluorescein clearance was evaluated as described for humans (Alfonso, A. A., et al., “Correlation of Tear Fluorescein Clearance and Schirmer Test Scores with Ocular Irritation Symptoms,” Ophthalmology 106:803-810 (1999), which is incorporated herein by reference in its entirety) and modified for rats (Chen, W., et al., “Keratoconjunctivitis Sicca Modifies Epithelial Stem Cell Proliferation Kinetics in Conjunctiva,” Cornea 26:1101-1106 (2007), which is incorporated herein by reference in its entirety). Animals were lightly sedated with Isoflurane and two microliters of 1% sodium fluorescein (Sigma-Aldrich, St. Louis, Mo.) solution (in sterile saline) was applied to the lower conjunctival sac. The animals awoke within two minutes. After fifteen minutes, the animals were re-sedated and the fluorescein-stained tear fluid was collected with a phenol-red cotton thread (as described for Schirmer testing). The threads were immediately sealed in 1.5 mL polypropylene Eppendorf tubes shielded from light until fluorophotometric analysis. The volume of the collected tear fluid was determined by the length of cotton wetting in mm. After, 100 μl of phosphate-buffered saline (PBS) was added, the tubes were spun at 12,000 rpm for five minutes and the fluid transferred to a 96-well polystyrene microtiter plate (Corning Life Sciences #2592, Fisher Scientific, Nepean, Ontario). A standard well was prepared on each plate, which consisted of a phenol-red thread placed in 100 μl PBS containing 2 μl of 1% sodium fluorescein solution. Fluorescence was measured immediately using a fluorescence microplate reader (FLUOstar OPTIMA, BMG Labtech, Germany) after setting the gain to the standard well. The concentration of fluorescein in tears was calculated from the fluorescence units divided by the mm of cotton wetting (Fu/mm).

cultured goblet cells = test: Goblet cell proliferation, Alamar Blue (Example 2); type: cell-based, rat; conditions: serum-free media
Experimental: The culturing of conjunctival goblet cells from explant cultures was as previously described in Shatos, M. et al., “Isolation, Characterization, and Propagation of Rat Conjunctival Goblet Cells In Vitro,” IOVS 42:1455-1464 (2001), the entire content of which is incorporated herein by reference. The tissue was finely minced and individual pieces were anchored onto scored 6-well cultures dishes in 0.5 mL of complete RPMI-1640 (supplemented with 10% FBS, 2 mM glutamine and 100 μg/mL penicillin-streptomycin) and incubated at 37° C. in a humidified 5% CO2-atmosphere. Explant cultures were refed every 2 days. Within a few days, goblet cells migrated from the pieces and began to proliferate. After approximately one week, the tissue plugs were removed and the goblet cells were allowed to grow to confluence. […]
Cell proliferation was measured using Alamar Blue from Biosource (Invitrogen Corporation, Carlsbad, Calif.) according to the manufacture's protocol. […] After 24 hours, 10% Alamar Blue was added for 6 hours and the absorbance was read at 570 and 600 nm on a Benchmark Plus (Biorad). The percentage of Alamar Blue reduction was calculated according to the manufacture's instructions. […]

[2] = tested on: Scopolamine Induced Rat Dry Eye Model; test: Scopolamine induced rat dry eye model, corneal staining (Example 5); type: in vivo; conditions: for Corneal Staining: score 0 to 4, ± SD
Experimental: as §1, §2
Immediately following TBUT assessment, the clinical signs of corneal dryness were evaluated by fluorescein staining of the cornea and was tested on day 13 (after 8 daily treatments), day 21 (after 16 daily treatments), and day 28 (after treatment was stopped for 7 days). A drop of a 0.2% sodium fluorescein solution made up in sterile saline was instilled in the upper conjunctival sac of the anaesthetized animal. The cornea was thereafter observed under blue light using a Portable Slit Lamp ophthalmoscope with blue cobalt filter (Reichert Ophthalmic Instruments, Depew, N.Y.) two to three minutes after fluorescein instillation. For each animal, the punctate fluorescein-stained area of the cornea was recorded in a masked fashion. The score of this test was graded from 0 to 4, where 0 is equal to no staining, 1 is less than 25% surface staining, 2 is 25-50% surface staining, 3 is 50-75% surface staining, and 4 is greater than 75% surface staining.

[3] = tested on: Scopolamine Induced Rat Dry Eye Model; test: Scopolamine induced rat dry eye model, Schirmer test (Example 5); type: in vivo; conditions: ± SD
Experimental: as §1, §2
Tear production was monitored using the Schirmer test on days 5, 7, 14, 20 and 29 post induction of dry eye. Tear production was measured with Zone-Quick standardized phenol-red threads (FCI Ophthalmics, Marshfield Hills, Mass.) on animals lightly sedated with Isoflurane. The threads were inserted in the lateral lower canthus and left in place for thirty seconds. The length of the stained moistened portion of the thread was measured in millimeters, using the scale provided with the threads to an accuracy of 1 mm.

[4] = 1.0% topical 1× daily Days 5-21, Day 20
[5] = 2.5% topical 1× daily Days 5-21, Day 7
[6] = 2.5% topical 1× daily Days 5-21, Day 14
[7] = 0.00053% topical 1× daily Days 5-21, Day 5 (test before first instillation)
[8] = 0.00053% topical 1× daily Days 5-21, Day 7
[9] = 0.00053% topical 1× daily Days 5-21, Day 14

NCCCC[C@@H]1NC(=O)[C@H](CCC(=O)O)NC(=O)c2cc([N+](=O)[O-])ccc2OCCC(C(=O)NCC(=O)O)NC1=O (stereo partly shown) [Compound D3]
Tear Fluorescein Clearance ([1]; 0.4% group, Day 2, before treatment start (day 5)): 516 ± 305 FU/mm | Tear Fluorescein Clearance ([1]; 0.4% group, Day −1, baseline, before treatment start (day 5)): 288 ± 247 FU/mm | Tear Fluorescein Clearance ([1]; 0.4% topical 1× daily Days 5-21, Day 5 (test before first instillation)): 969 ± 732 FU/mm | Tear Fluorescein Clearance ([1]; 0.4% topical 1× daily Days 5-21, Day 7): 296 ± 156 FU/mm | Tear Fluorescein Clearance ([1]; 0.4% topical 1× daily Days 5-21, Day 14): 635 ± 599 FU/mm | Tear Fluorescein Clearance ([1]; 0.4% topical 1× daily Days 5-21, Day 20): 667 ± 508 FU/mm | Tear Fluorescein Clearance ([1]; 1.0% group, Day 2, before treatment start (day 5)): 880 ± 673 FU/mm | Tear Fluorescein Clearance ([1]; 1.0% group, Day −1, baseline, before treatment start (day 5)): 575 ± 682 FU/mm | Tear Fluorescein Clearance ([1]; 1.0% topical 1× daily Days 5-21, Day 5 (test before first instillation)): 550 ± 369 FU/mm | Tear Fluorescein Clearance ([1]; 1.0% topical 1× daily Days 5-21, Day 7): 1098 ± 639 FU/mm | Tear Fluorescein Clearance ([1]; 1.0% topical 1× daily Days 5-21, Day 14): 686 ± 306 FU/mm | Tear Fluorescein Clearance [1, 4]: 1067 ± 773 FU/mm | Tear Fluorescein Clearance ([1]; 2.5% group, Day 2, before treatment start (day 5)): 777 ± 592 FU/mm | Tear Fluorescein Clearance ([1]; 2.5% group, Day −1, baseline, before treatment start (day 5)): 428 ± 312 FU/mm | Tear Fluorescein Clearance ([1]; 2.5% topical 1× daily Days 5-21, Day 5 (test before first instillation)): 671 ± 344 FU/mm | Tear Fluorescein Clearance [1, 5]: 561 ± 231 FU/mm | Tear Fluorescein Clearance [1, 6]: 791 ± 235 FU/mm | Tear Fluorescein Clearance ([1]; 2.5% topical 1× daily Days 5-21, Day 20): 673 ± 170 FU/mm | goblet cell proliferation (in words) (cultured goblet cells; concentrations up to 100 μM, by day four): did not stimulate goblet cell proliferation | Corneal Staining ([2]; 0.4% topical 1× daily Days 5-21, Day 13): 2.7 ± 0.4 Score | Corneal Staining ([2]; 0.4% topical 1× daily Days 5-21, Day 21): 2.1 ± 0.4 Score | Corneal Staining ([2]; 0.4% topical 1× daily Days 5-21, Day 28 (7 days after treatment stopped)): 2.4 ± 0.7 Score | changes in corneal staining at Day 28 as compared to Day 13 (in words) ([2]; 1% dose vs untreated and saline control groups): statistically significantly improved corneal staining | Corneal Staining ([2]; 1.0% topical 1× daily Days 5-21, Day 13): 2.8 ± 0.6 Score | Corneal Staining ([2]; 1.0% topical 1× daily Days 5-21, Day 21): 2.3 ± 0.6 Score | Corneal Staining ([2]; 1.0% topical 1× daily Days 5-21, Day 28 (7 days after treatment stopped)): 1.3±0.3 Score | Corneal Staining ([2]; 2.5% topical 1× daily Days 5-21, Day 13): 2.1 ± 0.7 Score | Corneal Staining ([2]; 2.5% topical 1× daily Days 5-21, Day 21): 2.1 ± 1.0 Score | Corneal Staining ([2]; 2.5% topical 1× daily Days 5-21, Day 28 (7 days after treatment stopped)): 2.6 ± 0.4 Score | Schirmer's Test [3, 4]: 6.8 ± 0.8 mm | Schirmer's Test [3, 5]: 9.1 ± 1.9 mm | Schirmer's Test [3, 6]: 9.4 ± 1.4 mm

NGF: nerve growth factor (recombinant human), positive control
Tear Fluorescein Clearance ([1]; 0.00053% group, Day 2, before treatment start (day 5)): 933 ± 824 FU/mm | Tear Fluorescein Clearance ([1]; 0.00053% group, Day −1, baseline, before treatment start (day 5)): 483 ± 562 FU/mm | Tear Fluorescein Clearance [1, 7]: 804 ± 432 FU/mm | Tear Fluorescein Clearance [1, 8]: 1080 ± 572 FU/mm | Tear Fluorescein Clearance [1, 9]: 1097 ± 1112 FU/mm | Tear Fluorescein Clearance ([1]; 0.00053% topical 1× daily Days 5-21, Day 20): 861 ± 414 FU/mm | goblet cell proliferation (in words) (cultured goblet cells; NGF 10 pM to 10 nM, up to day four): did not increase proliferation | Corneal Staining ([2]; 0.00053% topical 1× daily Days 5-21, Day 13): 2.6 ± 0.5 Score | Corneal Staining ([2]; 0.00053% topical 1× daily Days 5-21, Day 21): 2.3 ± 0.6 Score | Corneal Staining ([2]; 0.00053% topical 1× daily Days 5-21, Day 28 (7 days after treatment stopped)): 2.2 ± 0.3 Score | Schirmer's Test [3, 7]: 9.2 ± 2.5 mm | Schirmer's Test [3, 8]: 7.8 ± 1.4 mm | Schirmer's Test [3, 9]: 8.6 ± 2.1 mm | Schirmer's Test ([3]; 0.00053% topical 1× daily Days 5-21, Day 29 (after treatment stopped)): 7.5 ± 2.5 mm
